Data set [1] in a line: log P determination via capillary electrophorese (cePro9600). The class given is physicochemical. The settings on record: pH = 10.0. As for the experimental part:
log P determinations were performed via capillary electrophorese on a cePro9600™ from CombiSep.

For data set [2], the system named is vetch aphid (Megoura viciae). The data set is described as follows: Vetch aphid (Megoura viciae) broad bean leaf disk microtiter test. Type of data set: in vivo. The note with it: 1415 ppm; broad bean leaf disks; 5 days. The procedure:
B.2 Vetch Aphid (Megoura viciae)
For evaluating control of vetch aphid (Megoura viciae) through contact or systemic means the test unit consists of 24-well-microtiter plates containing broad bean leaf disks.
The compounds are formulated using a solution containing 75% v/v water and 25% v/v DMSO. Different concentrations of formulated compounds are sprayed onto the leaf disks at 2.5 μl, using a custom built micro atomizer, at two replications.
After application, the leaf disks are air-dried and 5-8 adult aphids placed on the leaf disks inside the microtiter plate wells. The aphids are then allowed to suck on the treated leaf disks and incubated at about […] and about 50±5% relative humidity for 5 days. Aphid mortality and fecundity is then visually assessed.

In data set [3] the test system is Tobacco Budworm (Heliothis virescens). As to the kind of experiment: Tobacco budworm (Heliothis virescens) I, foliar spray on cotton plants. Type of data set: in vivo. The note with it: 800 ppm, 4 days after treatment. The procedure: B.3 Tobacco Budworm (Heliothis virescens) I
The active compounds are formulated in cyclohexanone as a 10,000 ppm solution supplied in tubes. The tubes are inserted into an automated electrostatic sprayer equipped with an atomizing nozzle and they serve as stock solutions for which lower dilutions are made in 50% acetone:50% water (v/v). A nonionic surfactant (Kinetic®) is included in the solution at a volume of 0.01% (v/v).
Cotton plants are grown 2 plants to a pot and selected for treatment at the cotyledon stage. Test solutions are sprayed onto the foliage by an automated electrostatic plant sprayer equipped with an atomizing spray nozzle. The plants are dried in the sprayer fume hood and then removed from the sprayer. Each pot is placed into perforated plastic bags with a zip closure. About 10 to 11 budworm larvae are placed into the bag and the bags zipped closed. Test plants are maintained in a growth room at about 250C and about 20-40% relative humidity for 4 days, avoiding direct exposure to fluorescent light (24 hour photoperiod) to prevent trapping of heat inside the bags. Mortality and reduced feeding are assessed 4 days after treatment, compared to untreated control plants.

On to `CCCS(C)=NC(=O)c1cc(I)cc(C)c1NC(=O)c1cc(Br)nn1-c1ncccc1Cl` (racemic) [compound 272], for which, in data set [1], the logP result was “logP: 3.2 [pH = 10.0]”.

For the compound `CCS(CC1CC1)=NC(=O)c1cc(Cl)cc(C)c1N` (centres unmarked) [S.9], the “mortality in comparison with untreated controls” value in data set [2] was “over 75%”.

`CCCS(CCC)=NC(=O)c1cc(Cl)cc(Cl)c1N` [S.22]: in data set [3], the “mortality in comparison with untreated controls” value is given as “over 75%”.

With `CCCS(C)=NC(=O)c1cc(Cl)cc(C)c1NC(=O)c1cc(C(F)(F)F)nn1-c1ncccc1Cl` (centres unmarked) [compound 11], the logP result in data set [1] is “logP: 3.2 [pH = 10.0]”.

Regarding `Cc1cc(Cl)cc(C(=O)N=S(C(C)C)C(C)C)c1NC(=O)c1cc(C(F)(F)F)nn1-c1ncccc1Cl` [compound 24], in data set [1], the logP entry is “logP: 3.3 [pH = 10.0]”.

With `Cc1cc(I)cc(C(=O)N=S(C)C)c1NC(=O)c1cc(C(F)(F)F)nn1-c1ncccc1Cl` [compound 31], the logP result in data set [1] is “logP: 3.2 [pH = 10.0];”.

As to `CCS(C)=NC(=O)c1cc(I)cc(C)c1NC(=O)c1cc(C(F)(F)F)nn1-c1ncccc1Cl` (centres unmarked) [compound 33], the logP entry in data set [1] was “logP: 3.3 [pH = 10.0];”.

On to `CCCCCS(CCO)=NC(=O)c1cc(Cl)cc(C)c1NC(=O)c1cc(C(F)(F)F)nn1-c1ncccc1Cl` (centres unmarked) [compound 48], for which the logP entry in data set [1] was “logP: 3.6 [pH = 10.0];”.

In the case of `Cc1cc(I)cc(C(=O)N=S2CCCCC2)c1NC(=O)c1cc(C(F)(F)F)nn1-c1ncccc1Cl` [compound 71], the logP entry in data set [1] is “logP: 3.6 [pH = 10.0];”.

On to `CCCS(C)=NC(=O)c1cc(I)cc(C)c1NC(=O)c1cc(C(F)(F)F)nn1-c1ncccc1Cl` (centres unmarked) [compound 93], for which the logP entry in data set [1] was “logP: 3.6 [pH = 10.0];”.

Regarding `Cc1cc(Cl)cc(C(=O)N=S(C)C)c1NC(=O)c1cc(C(F)(F)F)nn1-c1ncccc1Cl` [compound 110], in data set [1], the logP result is “logP: 2.9 [pH = 10.0];”.

For the compound `CCCCCS(CCO)=NC(=O)c1cc(I)cc(C)c1NC(=O)c1cc(C(F)(F)F)nn1-c1ncccc1Cl` (centres unmarked) [compound 113], the logP entry in data set [1] was “logP: 3.9 [pH = 10.0];”.

In the case of `Cc1cc(I)cc(C(=O)N=S(C(C)C)C(C)C)c1NC(=O)c1cc(C(F)(F)F)nn1-c1ncccc1Cl` [compound 120], the logP result in data set [1] was “logP: 3.4 [pH = 10.0];”.

As to `Cc1cc(I)cc(C(=O)N=S2CCSC2)c1NC(=O)c1cc(C(F)(F)F)nn1-c1ncccc1Cl` (centres unmarked) [compound 129], the logP entry in data set [1] is “logP: 3.5 [pH = 10.0];”.

Regarding `Cc1cc(I)cc(C(=O)N=S2CCCC2)c1NC(=O)c1cc(C(F)(F)F)nn1-c1ncccc1Cl` [compound 137], in data set [1], the logP result was “logP: 3.1 [pH = 10.0];”.

In the case of `CCS(C)=NC(=O)c1cc(Cl)cc(C)c1NC(=O)c1cc(C(F)(F)F)nn1-c1ncccc1Cl` (centres unmarked) [compound 152], the logP entry in data set [1] is “logP: 2.9 [pH = 10.0];”.

With `C#CCOc1cc(C(=O)Nc2c(C)cc(I)cc2C(=O)N=S(CCO)CCCCC)n(-c2ncccc2Cl)n1` (centres unmarked) [compound 195], the logP result in data set [1] was “logP: 3.5 [pH = 10.0]”.

With `C#CCOc1cc(C(=O)Nc2c(C)cc(I)cc2C(=O)N=S(C(C)C)C(C)C)n(-c2ncccc2Cl)n1` [compound 196], the logP entry in data set [1] was “logP: 3.1 [pH = 10.0]”.

`C#CCOc1cc(C(=O)Nc2c(C)cc(Cl)cc2C(=O)N=S(C(C)C)C(C)C)n(-c2ncccc2Cl)n1` [compound 197]: in data set [1], the logP entry is “logP: 2.7 [pH = 10.0]”.

With `Cc1cccc(C(=O)N=S(C)C)c1NC(=O)c1cc(C(F)(F)F)nn1-c1ncccc1Cl` [compound 199], in data set [1], the logP result is “logP: 2.2 [pH = 10.0];”.

As to `C#CCOc1cc(C(=O)Nc2c(C)cc(Cl)cc2C(=O)N=S2CCSC2)n(-c2ncccc2Cl)n1` (centres unmarked) [compound 200], the logP entry in data set [1] was “logP: 2.5 [pH = 10.0]”.

Turning to `C#CCOc1cc(C(=O)Nc2c(C)cc(Cl)cc2C(=O)N=S(C)c2ccc(F)cc2)n(-c2ncccc2Cl)n1` (centres unmarked) [compound 201], the logP result in data set [1] is “logP: 2.9 [pH = 10.0]”.

As to `C#CCOc1cc(C(=O)Nc2c(C)cc(I)cc2C(=O)N=S(C)c2ccc(F)cc2)n(-c2ncccc2Cl)n1` (centres unmarked) [compound 204], the logP entry in data set [1] is “logP: 3.4 [pH = 10.0]”.

On to `C#CCOc1cc(C(=O)Nc2c(C)cc(Cl)cc2C(=O)N=S2CCCCC2)n(-c2ncccc2Cl)n1` [compound 209], for which the logP result in data set [1] is “logP: 2.8 [pH = 10.0]”.

On to `CCS(C)=NC(=O)c1cccc(C)c1NC(=O)c1cc(C(F)(F)F)nn1-c1ncccc1Cl` (centres unmarked) [compound 210], for which the logP result in data set [1] is “logP: 2.5 [pH = 10.0];”.

With `CCCS(C)=NC(=O)c1cccc(C)c1NC(=O)c1cc(C(F)(F)F)nn1-c1ncccc1Cl` (centres unmarked) [compound 211], the logP entry in data set [1] was “logP: 2.8 [pH = 10.0];”.

With `CCCCCS(CCO)=NC(=O)c1cccc(C)c1NC(=O)c1cc(C(F)(F)F)nn1-c1ncccc1Cl` (centres unmarked) [compound 213], in data set [1], the logP result is “logP: 3.4 [pH = 10.0];”.

For `Cc1cccc(C(=O)N=S(C(C)C)C(C)C)c1NC(=O)c1cc(C(F)(F)F)nn1-c1ncccc1Cl` [compound 214], the logP result in data set [1] is “logP: 2.7 [pH = 10.0];”.

For the compound `Cc1cccc(C(=O)N=S(C)c2ccc(F)cc2)c1NC(=O)c1cc(C(F)(F)F)nn1-c1ncccc1Cl` (centres unmarked) [compound 215], the logP entry in data set [1] is “logP: 3.2 [pH = 10.0];”.

For the compound `C#CCOc1cc(C(=O)Nc2c(C)cc(Cl)cc2C(=O)N=S(CCO)CCCCC)n(-c2ncccc2Cl)n1` (centres unmarked) [compound 216], in data set [1], the logP entry was “logP: 3.3 [pH = 10.0]”.

As to `Cc1cc(I)cc(C(=O)N=S2CCSC2)c1NC(=O)c1cc(Br)nn1-c1ncccc1Cl` (centres unmarked) [compound 221], the logP entry in data set [1] was “logP: 3.3 [pH = 10.0];”.

For `Cc1cccc(C(=O)N=S2CCCC2)c1NC(=O)c1cc(Br)nn1-c1ncccc1Cl` [compound 222], the logP result in data set [1] is “logP: 2.1 [pH = 10.0]”.

Take `CCS(C)=NC(=O)c1cc(I)cc(C)c1NC(=O)c1cc(Br)nn1-c1ncccc1Cl` (centres unmarked) [compound 223]: the logP entry in data set [1] is “logP: 3.1 [pH = 10.0];”.

Take `CCS(C)=NC(=O)c1cc(Cl)cc(C)c1NC(=O)c1cc(Br)nn1-c1ncccc1Cl` (centres unmarked) [compound 224]: the logP result in data set [1] was “logP: 2.7 [pH = 10.0];”.

`Cc1cc(Cl)cc(C(=O)N=S(C)c2ccc(F)cc2)c1NC(=O)c1cc(Br)nn1-c1ncccc1Cl` (centres unmarked) [compound 235]: the logP entry in data set [1] was “logP: 3.2 [pH = 10.0];”.

Regarding `Cc1cccc(C(=O)N=S(C(C)C)C(C)C)c1NC(=O)c1cc(Br)nn1-c1ncccc1Cl` [compound 236], in data set [1], the logP entry was “logP: 2.3 [pH = 10.0];”.

Consider `Cc1cccc(C(=O)N=S(C)c2ccc(F)cc2)c1NC(=O)c1cc(Br)nn1-c1ncccc1Cl` (centres unmarked) [compound 237], for which, in data set [1], the logP result was “logP: 2.7 [pH = 10.0];”.

As to `Cc1cc(I)cc(C(=O)N=S(C)c2ccc(F)cc2)c1NC(=O)c1cc(Br)nn1-c1ncccc1Cl` (centres unmarked) [compound 238], the logP entry in data set [1] is “logP: 3.5 [pH = 10.0];”.

Regarding `CCCS(C)=NC(=O)c1cc(Cl)cc(C)c1NC(=O)c1cc(Br)nn1-c1ncccc1Cl` (centres unmarked) [compound 242], the logP entry in data set [1] is “logP: 2.9 [pH = 10.0];”.

Take `Cc1cc(Cl)cc(C(=O)N=S(C(C)C)C(C)C)c1NC(=O)c1cc(Br)nn1-c1ncccc1Cl` [compound 243]: the logP result in data set [1] was “logP: 2.9 [pH = 10.0]”.

For the compound `Cc1cc(I)cc(C(=O)N=S2CCCC2)c1NC(=O)c1cc(Br)nn1-c1ncccc1Cl` [compound 246], in data set [1], the logP entry is “logP: 2.9 [pH = 10.0];”.

As to `CCCCCS(CCO)=NC(=O)c1cccc(C)c1NC(=O)c1cc(Br)nn1-c1ncccc1Cl` (centres unmarked) [compound 250], in data set [1], the logP entry was “logP: 2.9 [pH = 10.0]”.

Consider `CCCCCS(CCO)=NC(=O)c1cc(I)cc(C)c1NC(=O)c1cc(Br)nn1-c1ncccc1Cl` (centres unmarked) [compound 252], for which, in data set [1], the logP entry was “logP: 3.7 [pH = 10.0]”.

In the case of `Cc1cc(I)cc(C(=O)N=S(C(C)C)C(C)C)c1NC(=O)c1cc(Br)nn1-c1ncccc1Cl` [compound 257], the logP result in data set [1] is “logP: 3.3 [pH = 10.0];”.

As to `CCCCCS(CCO)=NC(=O)c1cc(Cl)cc(C)c1NC(=O)c1cc(Br)nn1-c1ncccc1Cl` (centres unmarked) [compound 258], in data set [1], the logP entry was “logP: 3.4 [pH = 10.0];”.

Regarding `C=CS(CC)=NC(=O)c1cccc(C)c1NC(=O)c1cc(Br)nn1-c1ncccc1Cl` (centres unmarked) [compound 261], the logP result in data set [1] is “logP: 2.1 [pH = 10.0];”.

For the compound `CCCS(C)=NC(=O)c1cccc(C)c1NC(=O)c1cc(Br)nn1-c1ncccc1Cl` (centres unmarked) [compound 263], the logP entry in data set [1] was “logP: 2.3 [pH = 10.0];”.

With `Cc1cc(I)cc(C(=O)N=S2CCCCC2)c1NC(=O)c1cc(Br)nn1-c1ncccc1Cl` [compound 267], the logP entry in data set [1] was “logP: 3.4 [pH = 10.0];”.

In the case of `CCS(CCCl)=NC(=O)c1cc(I)cc(C)c1NC(=O)c1cc(Br)nn1-c1ncccc1Cl` (centres unmarked) [compound 268], the logP result in data set [1] was “logP: 3.2 [pH = 10.0];”.

For `Cc1cccc(C(=O)N=S(C)C)c1NC(=O)c1cc(Br)nn1-c1ncccc1Cl` [compound 274], the logP entry in data set [1] was “logP: 1.9 [pH = 10.0];”.

Source of the values: patent US9282741B2, “Aniline type compounds” (BASF SE, priority 2011, dated 2016).
